# Experiment: Paraffin wax solubility test
# Type: physicochemical
# Conditions: 2.0 g paraffin wax in 98 g solvent, 25 °C; for Dissolution Time: stirring at 350 rpm; for Observation: up to 24-hours stirring
# Text: A method to evaluate the capability of a solvent to dissolve paraffin wax was developed and it helps to understand how will be performed certain solvent when applied to an epicuticular surface of a plant or an insect.
Dissolution Time [min],Observation,SMILES
930,stable at 25° c.,CCCCCCCCCCCC(=O)OCC(CC)CCCC (stereo not shown) [2-ethylhexyl laurate]
–,undissolved after,"CCCCCCCCCC(=O)N(C)C [N,N-dimethyldecanamide]"
–,undissolved after,C[S+](C)[O-] [dimethyl sulfoxide]
620,stable at 25° c.,CCCCCCCCCCCC(=O)OCCC(C)C [isoamyl laurate]
340,stable at 25° c.,CCCCCCCCCCCC(=O)OCC(C)C [isobutyl laurate]
102,stable at 25° c.,CCCCCCCCCCCC(=O)OC(C)C [isopropyl laurate]
–,stable at 25° c.,CCCCCCCCCCCCCC(=O)OC(C)C [isopropyl myristate]
300,stable at 25° c.,CCCCCCCCCCCC(=O)OC [methyl laurate]
–,undissolved after,CC1COC(=O)O1 (stereo not shown) [propylene carbonate]
–,undissolved after,OCC1CCCO1 (stereo not shown) [tetrahydrofurfural alcohol]

SMILES,Dissolution Time [min],Observation
O=C1CCCCC1 [cyclohexanone],–,undissolved after
